# Experimental data taken from patent publication US10611797B2, “Peptide having anticancer activity, and pharmaceutical composition and dietary supplement composition for preventing and treating cancer, both of which contain same as active ingredient” (IUCF-HYU (INDUSTRY-UNIVERSITY COOPERATION FOUNDATION …, priority 2015, dated 2020).
# No end group written: not given here. *: point of attachment. Biotin = O=C1N[C@H]2[C@H](CS[C@H]2CCCCC(=O)*)N1
# T1: GST-CP2c wild type (UniProt Q9ERA0 Q9ERA0:1-502)
# T1 sequence: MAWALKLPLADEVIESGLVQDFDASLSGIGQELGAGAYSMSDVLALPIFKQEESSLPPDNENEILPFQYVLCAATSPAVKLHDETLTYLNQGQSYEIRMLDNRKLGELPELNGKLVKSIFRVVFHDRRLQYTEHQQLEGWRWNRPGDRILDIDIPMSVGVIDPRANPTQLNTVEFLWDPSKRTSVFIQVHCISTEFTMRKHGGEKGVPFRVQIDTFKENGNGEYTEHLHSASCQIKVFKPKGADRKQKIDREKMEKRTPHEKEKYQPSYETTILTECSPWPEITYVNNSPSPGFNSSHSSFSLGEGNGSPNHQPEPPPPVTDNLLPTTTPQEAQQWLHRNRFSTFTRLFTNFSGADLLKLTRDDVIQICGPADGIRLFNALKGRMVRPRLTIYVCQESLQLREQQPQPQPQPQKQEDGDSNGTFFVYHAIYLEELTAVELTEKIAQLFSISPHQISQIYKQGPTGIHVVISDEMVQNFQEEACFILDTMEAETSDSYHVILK
# Assays:
# [1] = system: liver cancer cell lines (HepG2, Hep3B); test: MTT cell viability, liver cancer cell lines; type: cell-based, human; details: 0-10 μM, 24-96 h
# Method: (§1) Liver cancer cell lines (HepG2, Hep3B) were inoculated into 96-well plates at a density of 3000 cells/well, and then 50 μl of culture solution was added thereto. Cells were cultured at 37° C. and 5% CO2 for 1 h. […] Cells were cultured at 37° C. and 5% CO2 for 24, 48, 72, and 96 h. After completion of the culture, the remaining culture solution was removed from the well plates, the cultures were diluted with MTT solution (3-(4,5-dimethylthiazol-2-yl)-2,5-diphenyltetrazole bromide) to a final density of 500 μg/ml, and cells were cultured at 37° C. and 5% CO2 for 3 h. The remaining MTT solution was removed and 150 μl of dimethyl sulfoxide (DMSO) was added. The reaction was carried out at room temperature for 20 min. After completion of the reaction, absorbance was measured using a microplate reader.
# [2] = system: normal cell lines (MCF10A, BEAS2B, hMSCs, mouse primary T cells)
# Method: (§2) Liver cancer cell lines (HepG2, Hep3B), a human embryonic kidney cell line (293T), breast cancer cell lines (MCF-7, MDA-MB-231), blood tumor cell lines (K562, HEL, HL60), glioblastoma cell lines (U251, U373MG, U87MG), a mammary epithelial cell line (MCF10A), a lung epithelial cell line (BEAS2B), human mesenchymal stem cells (hMSCs), and mouse primary T cells (resting and activated T cells) were inoculated into 96-well plates at a density of 3,000 cells/well, supplemented with 50 μl of culture solution, and cultured at 37° C. and 5% CO2 for 1 h. […] After completion of the culture, cells were observed under an inverted phase contrast microscope and their morphological changes were imaged.
# [3] = system: BEAS2B and MCF10A normal epithelial cell lines
# Method: as §1
# [4] = system: breast cancer cell lines (MCF7, MDA-MB-231); test: MTT cell viability, breast cancer cell lines; type: cell-based, human; details: 0-10 μM, 24-96 h
# Method: as §1
# [5] = system: human embryonic kidney cancer cell line (293T); test: MTT cell viability, 293T; type: cell-based; details: 0-10 μM, 24-96 h
# Method: as §1
# [6] = system: human blood cancer cell lines (K562, HEL, HL60); test: MTT cell viability, human blood cancer cell lines; type: cell-based; details: 0-10 μM, 24-96 h
# Method: as §1
# [7] = system: CP2c; test: Luciferase reporter assay of CP2c transcriptional activity in 293T cells; type: cell-based, human; details: 2 μM, 48 h, wild-type CP2c binding sites, compared with FQI1
# Method: 293T cells were inoculated into a 12-well plate at a density of 1×10^5 cells/well. 12 h after inoculation, cells were transfected with combinations of a reporter vector (the wild-type reporter links the enhancer sequence of the GATA-1 gene including twice repeated CP2c-binding sites to the upstream of the luciferase gene and Mut 1/3, Mut 2/4, and Mut 1-4 reporters cause mutations of the CP2c binding sites present in the enhancer sequence) and various Flag-CP2c, HA-CP2b, and HA-PIAS1 expression vectors by using the effectene method. After 1-h culture, cells were treated with FQI1, Peptide 5C, and Peptide 5-2C at concentrations of 2 μM, followed by 48-h culture. Cells were harvested and lysed in 250 μl of passive cell lysis buffer (Promega) to obtain an extract. 20 μl of the cell extract and a dual-luciferase assay kit (Promega) were used to measure the activity of the labeled luciferase gene in GLOMAX (Promega) (the expression of each expression vector was confirmed by Western blotting).
# [8] = system: glioblastoma cell lines (U251, U87MG, U343); test: MTT cell viability, glioblastoma cell lines; type: cell-based, human; details: 0-10 μM, 24-96 h
# Method: as §1
# [9] = system: cancer cell lines (HepG2, Hep3B, 293T, MCF-7, MDA-MB-231, K562, HEL, HL60, U251, U373MG, U87MG); test: Microscopic observation of growth inhibition and apoptosis, cancer cell lines; type: cell-based, human; details: 2 μM, 48 h
# Method: as §2
# [10] = system: human embryonic stem cells (hESCs, H9)
# Text: MEF cells labeled with rhodamine were often used to distinguish them from hESC-derived cells.
# [11] = system: MDA-MB-231 cell line and MCF7 cell line; test: MTT assay of Peptide 5-2CB; type: cell-based, human
# Text: To support this assumption, a CP2c protein region with which Peptide 5-2C interacts and amino acids in the region directly binding to Peptide 5-2C need to be identified. Thus, an attempt was made to obtain mutant CP2c proteins in which polar amino acids present in the CP2c region binding with Peptide 5 shown in FIG. 1 were substituted with Ala and analyze the binding of the mutant CP2c proteins with Peptide 5-2C by enzyme-linked immunosorbent assay (ELISA). To facilitate this analysis, Peptide 5-2CB was synthesized in which biotin tag is bonded to the C-terminal Pro residue of Peptide 5-2C. To confirm whether Peptide 5-2CB induces cancer cell-specific growth interruption and apoptosis, like Peptide 5-2C, MTT assay was conducted on two different batches of Peptide 5-2CB in MDA-MB-231 cell line and MCF7 cell line by the same method as in Example 5.1. IC50 values were also calculated from the results of MTT assay. To obtain 19 mutant CP2c proteins in which polar amino acids present in the CP2c region binding with Peptide 5-2C were substituted with Ala, oligonucleotides having sequences encoding the corresponding mutant amino acids were synthesized and site-directed mutagenesis was carried out. The base sequences encoding the mutant CP2c genes were cloned into the pGEX4 vector and mutant GST-fusion CP2c proteins were purified using beads bound with antibody against GST-tag. […]
# [12] = target: T1, GST-CP2c wild type; test: pulldown; DNA-IP, values only in figure; details: tags: GST fusion, E. coli; label: 32P
molecule,measurement,setting,value
Ac-HERRESNYPQRPCRGCRGDKGPDC-Amide (Ac-HERRESNYPQRPCRGCRGDKGPDC-NH2; ends and bridges not checked) [Peptide 5C],"relative viability (MTT), liver cancer cell lines, compared with FQI1",[1],more effectively inhibited the growth of the liver cancer cell lines and induced apoptosis than FQI1
same,effect on normal cell lines (microscopy),[2],without substantially affecting the normal cell lines
same,growth inhibition and apoptosis induction of normal control cell lines (IC50 calculation),[3],"inhibited cell growth and induced apoptosis, similarly to the treatment with Peptide 5C"
same,"relative viability (MTT), breast cancer cell lines, compared with FQI1",[4],more effectively inhibited the growth of the breast cancer cell lines and induced apoptosis than FQI1
same,"relative viability (MTT), 293T, compared with FQI1",[5],inhibited the growth of the glioblastoma cell lines and induced apoptosis similarly to FQI1
same,"relative viability (MTT), K562, HEL, HL60, compared with FQI1",[6],slightly effectively inhibited the growth of the glioblastoma cell lines and induced apoptosis compared to FQI1
same,CP2c-mediated transcriptional activity (luciferase reporter),[7],effectively inhibit CP2c-mediated transcriptional activity compared to FQI1
same,"relative viability (MTT), glioblastoma cell lines, compared with FQI1",[8],more effectively inhibited the growth of the glioblastoma cell lines and induced apoptosis than FQI1
same,growth inhibition and apoptosis induction of cancer cell lines (microscopy),[9],specifically inhibited the growth of the cancer cell lines and induced apoptosis
same,cytotoxicity (MTT) in hESCs,[10],slight cytotoxicity at high concentrations
Peptide 5-2CB: biotin-tagged Lys linked to the C-terminal Cys residue of Peptide 5-2C (NYPQRPCRGDKGPDCK(Biotin); not fully specified; cysteine pairing not given here),IC50 compared with Peptide 5-2C,[11]; 48 h,had IC50 values similar to Peptide 5-2C
same,cancer cell growth interruption and apoptosis (MTT),"[11]; two batches, increasing concentrations",induced cancer cell-specific cell growth interruption and apoptosis
alpha-globin promoter CP2c site probe (dsDNA) DNA 1: GATCCCAAGTTTTACTCGGTAGAGCAAGCACAAACCAGG DNA 2: CCTGGTTTGTGCTTGCTCTACCGAGTAAAACTTGGGATC,binding result,[12],binds
